# Experiments:
# Ttr RNA = Ttr RNA quantification (qRT-PCR) in murine primary hepatocytes, depot release; format: cell-based, mouse; conditions: 0.05 nM GN3-siTTR 6 hrs loading, wash, saponin component 48 hrs
# Method: Wells of a 24- or 96-well plate (Greiner BioOne) were coated overnight at 37° C. with rat collagen-I (Ibidi). Next day the coating solution was removed and the wells were washed 1× with PBS (PAN-Biotech GmbH). Hepatocyte Plating Medium (HPM, […] Cell Culture Technology GmbH) was added using 210 μl or 35 μl per well, per 24-wp or 96-wp respectively. Next, GN3-siTTR/DPBS was dissolved at 10× the final concentration (final concentration is 0.5 nM or 0.05 nM GN3-siTTR, as indicated) and 90 μl or 15 μl was added to each well, per 24-wp or 96-wp respectively. Cryopreserved primary mouse hepatocytes (Cytes Biotechnology) were thawed in Hepatocyte Thawing Medium (HTM, […] Cell Culture Technology GmbH) and collected by centrifugation at 50×g for 10 min. […]
# RNA from cells was isolated using TRIzol™ Reagent (Thermo Scientific) according to the manufacturer's instruction. […] Ttr expression levels and levels of specific hepatocyte housekeeping genes were determined using quantitative real-time PCR assays (qRT-PCR) using iTaq™ Universal SYBR® Green Supermix (BioRad) and the Light Cycler 480 II (Roche Diagnostics) with specific DNA primers, listed in Table A2. […]
# The timed, saponin-component-inducible release of a nucleic acid from endosomes after prior loading cells with the nucleic acid was also assessed in vitro in murine primary hepatocytes (MPH) in different dosing regimens. […]
# A431 cells [1] = assay: Cell viability (MTS) of A431 cells with aCD71-SPRN and saponin components; format: cell-based, human; conditions: for potency of aCD71-SPRN versus co-administration / efficacy enhancement of aCD71-SPRN: 5 pM aCD71-SPRN 24 hr loading, wash; for efficacy enhancement of aCD71-SPRN: 24 hrs resting; for relative cell viability, efficacy of aCD71-SPRN: 5 pM aCD71-SPRN + concentration range of saponin component, 48 hr co-administration
# Method: Cells were cultured in DMEM (PAN-Biotech GmbH) supplemented with 10% fetal bovine serum (FBS) (PAN-Biotech GmbH) and Pen/Strep (PAN-Biotech GmbH) at 37° C. and 5% CO2. Cells were seeded in a 96-well plate at 5.000-6.000 cells/well in 100 μL/well and incubated overnight at 37° C. […] The medium was removed from the cell culture plate and replaced by 180 μL fresh culture medium, followed by the addition of 20 μL 10× compound-mix/well. PBS treatment served as vehicle control. After 24 hrs treatment, the cells were washed and incubated with medium or medium containing PBS/saponin components for the time indicated in FIG. 6B, 6C, 6D at 37° C. At the end of the experiment at 48 hr after saponin component treatment or PBS treatment the cells were harvested for cell viability analysis. Alternatively, as a positive control, the cells were treated with a co-administration of protein toxin and saponin component (or PBS) mix for 48 hrs without medium change, FIG. 6A.
# After treatment cell viability was determined by an MTS-assay, performed according to the manufacturer's instruction (CellTiter 96@AQueous One Solution Cell Proliferation Assay, Promega). Briefly, the MTS solution was diluted 20′ in DMEM without phenol red (PAN-Biotech GmbH) supplemented with 10% FBS. The cells were washed once with 200 μL/PBS well, after which 100 μL diluted MTS solution was added/well. The plate was incubated for approximately 20-30 minutes at 37° C. Subsequently, the OD at 492 nm was measured on a Spectramax iD5 plate reader (Molecular Devices). For quantification the background signal of ‘medium only’ wells was subtracted from all other wells, before the cell viability percentage of treated/untreated cells was calculated, by dividing the background corrected signal of treated wells over the background corrected signal of the untreated wells (×100).
# One disadvantage of these types of immunotoxins for clinical use is their relatively narrow therapeutic window and associated potentially life-threatening toxicities at dose levels that are therapeutic. Here, the in vitro efficacy and enhancement of effect durability of an immunotoxin (anti-CD71-saporin, also referred to as aCD71-SPRN, protein toxin) by endosome escape enhancer saponin components was assessed in epidermoid carcinoma cells and metastatic melanoma cells. A concentration range of a saponin component was added either together with a fixed concentration of 5 pM aCD71-SPRN to the cancer cells, or at various time points after the loading of the cancer cells with a fixed concentration of 5 pM aCD71-SPRN (according to dosing schemes in FIG. 6A, 6B, 6C, 6D). As a negative control, cells were loaded with protein toxin according to scheme FIG. 6A-D but received medium with PBS instead of saponin component.
# A431 cells [2] = assay: Imaging of Cy5 fluorescence release from Cet-Cy5 loaded A431 cells; format: cell-based, human; conditions: A431 loaded with 2 nM Cet-Cy5 48 hrs, wash, 24 hrs resting, saponin component added at 72 hrs
# Method: Cells were cultured in DMEM (PAN-Biotech GmbH) supplemented with 10% fetal bovine serum (FBS) (PAN-Biotech GmbH) and Pen/Strep (PAN-Biotech GmbH) at 37° C. and 5% CO2.
# [3] = 6 hrs resting, saponin component 48 hrs
# [4] = saponin component added directly, 48 hrs
Structure (SMILES),remaining Ttr levels (Ttr RNA),potency of aCD71-SPRN versus co-administration (A431 cells [1]; [3]),efficacy enhancement of aCD71-SPRN (A431 cells [1]; saponin component 48 hrs),potency of aCD71-SPRN versus co-administration (A431 cells [1]; [4]),"relative cell viability, efficacy of aCD71-SPRN (A431 cells [1])",Cy5 fluorescence state at end of experiment at 160 hrs (A431 cells [2])
CC(=O)OC1C(C)OC(OC2C(C)OC(OC(=O)[C@]34CCC(C)(C)CC3C3=CCC5[C@@]6(C)CC[C@H](OC7OC(C(=O)O)C(O)C(OC8OCC(O)C(O)C8O)C7OC7OC(CO)C(O)C(O)C7O)[C@@](C)(/C=N/NC(=O)CCCCCN7C(=O)CC(SCCO)C7=O)C6CC[C@@]5(C)[C@]3(C)C[C@H]4O)C(OC3OC(C)C(OC4OCC(O)C(OC5OC(CO)C(O)C(O)C5O)C4O)C(O)C3O)C2O)C(O)C1OC1OCC(O)C(O)C1O (some centres unmarked) [SO1861-AH-Maleimide-Block],3%,very comparable to the co-administration,still apparent,comparable high potency,reduces cell viability,–
CC(=O)O[C@H]1[C@H](O[C@@H]2OC[C@@H](O)[C@H](O)[C@H]2O)[C@@H](O)[C@H](O[C@@H]2[C@H](O)[C@@H](O[C@@H]3O[C@@H](C)[C@H](O[C@@H]4OC[C@@H](O)[C@H](O[C@@H]5O[C@H](CO)[C@@H](O)[C@H](O)[C@H]5O)[C@H]4O)[C@@H](O)[C@H]3O)[C@H](OC(=O)[C@]34CCC(C)(C)C[C@H]3C3=CC[C@@H]5[C@@]6(C)CC[C@H](O[C@@H]7O[C@H](C(=O)O)[C@@H](O)[C@H](O[C@@H]8OC[C@@H](O)[C@H](O)[C@H]8O)[C@H]7O[C@@H]7O[C@H](CO)[C@H](O)[C@H](O)[C@H]7O)[C@@](C)(C=O)[C@@H]6CC[C@@]5(C)[C@]3(C)C[C@H]4O)O[C@@H]2C)O[C@@H]1C [SO1861],10%,very comparable to the co-administration,still apparent,comparable high potency,reduces cell viability,zero fluorescent state

# From US20250205361A1, “TREATMENT […] FOR T[…] […] ACT VIA AN INT[…] TARGET” (priority 2023, published 2025)
